Test results as given in patent US20240180900A1, “COMPOUNDS AND METHODS FOR THE TARGETED DEGRADATION OF ANDROGEN RECEPTOR” (Arvinas Operations, Inc., priority 2022, published 2024).

Experiments:
[1] = tested on: PSA; assay: intracellular PSA ELISA in VCaP cells; format: cell-based; settings: Homo sapiens, CSS + 0.1 nM R1881, 48 hours, read-out: IC50, inhibiting PSA expression
Procedure: Intracellular prostate specific antigen (PSA) levels were determined using a PSA enzyme-linked immunosorbent assay (ELISA). […] The cell proliferation was determined using the CellTiter-Glo® assay. […] The CaspaseGlo® assay was carried out to measure the level of apoptosis in cells.
To evaluate the pharmacological effect of Compound A in vitro, PSA, cell proliferation, and apoptosis assays were carried out in VCaP cells.

[2] = molecular target: T1, AR (LNCaP cells, AR mutation T878A) (Homo sapiens, UniProt P10275, T878A); assay: AR degradation assay in LNCaP cells; format: cell-based; settings: 24 hours of treatment
T1 construct: endogenous in cells; host or cells: LNCaP
T1 sequence (P10275 whole entry T878A): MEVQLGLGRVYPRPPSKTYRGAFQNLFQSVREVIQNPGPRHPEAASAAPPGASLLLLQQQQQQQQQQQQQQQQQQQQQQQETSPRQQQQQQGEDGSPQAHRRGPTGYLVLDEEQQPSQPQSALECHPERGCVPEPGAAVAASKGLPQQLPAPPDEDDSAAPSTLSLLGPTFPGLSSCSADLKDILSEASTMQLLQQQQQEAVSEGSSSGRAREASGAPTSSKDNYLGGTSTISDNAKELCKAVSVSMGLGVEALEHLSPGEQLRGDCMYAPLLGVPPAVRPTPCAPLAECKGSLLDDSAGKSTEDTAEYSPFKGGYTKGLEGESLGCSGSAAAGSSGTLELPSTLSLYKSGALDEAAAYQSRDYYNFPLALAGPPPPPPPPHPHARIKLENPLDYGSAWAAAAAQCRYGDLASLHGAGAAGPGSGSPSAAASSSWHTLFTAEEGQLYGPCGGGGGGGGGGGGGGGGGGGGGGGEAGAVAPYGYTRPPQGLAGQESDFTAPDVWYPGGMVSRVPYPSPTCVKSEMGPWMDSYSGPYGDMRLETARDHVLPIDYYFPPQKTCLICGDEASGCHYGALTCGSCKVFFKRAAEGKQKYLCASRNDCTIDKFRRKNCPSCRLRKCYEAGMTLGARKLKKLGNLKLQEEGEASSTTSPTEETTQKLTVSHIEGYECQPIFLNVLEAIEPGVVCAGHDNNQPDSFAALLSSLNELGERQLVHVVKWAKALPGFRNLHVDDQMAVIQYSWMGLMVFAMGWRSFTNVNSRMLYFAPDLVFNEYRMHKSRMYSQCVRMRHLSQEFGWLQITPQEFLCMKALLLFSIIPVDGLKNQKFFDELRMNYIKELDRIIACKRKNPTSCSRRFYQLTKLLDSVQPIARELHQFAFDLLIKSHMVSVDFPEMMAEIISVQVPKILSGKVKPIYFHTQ
Procedure: FIG. 2 is an analysis of Compound A in in vitro AR degradation assays conducted in VCaP cells and LNCaP cancer cells that harbor AR amplification and the AR mutation (T878A) mutation, respectively.
To determine the pharmacological effect of Compound A in vitro, AR degradation assays were conducted in VCaP (vertebral-cancer of the prostate) cancer cells and LNCaP (lymph node carcinoma of the prostate) cancer cells that harbor AR amplification and the AR mutation (T878A) mutation, respectively.
To determine the pharmacological effect of Compound A in vitro, AR degradation assays were conducted in VCaP cells and LNCaP prostate cancer cells that harbor AR amplification and the AR mutation (T878A) mutation, respectively.

[3] = tested on: PSA; assay: Phase 1/2 trial in mCRPC: PSA response; format: in vivo, human
Procedure: Evaluable analysis set include all Compound A treated participants with baseline PSA assessment and at least a C1D28 or later postbaseline PSA assessment. A PSA90 and PSA50 and PSA30 response is defined as a =90% or 50% or 30% decline in PSA from baseline PSA value, respectively.
Patients in the Phase 1 studies were administered from 40 mg to 500 mg Compound A once daily. Patients in the Phase 2 studies were administered 100 mg or 300 mg Compound A once daily.
In the Phase 1 and interim Phase 2 trial, AR LBD mutations were present in 28% (13 of 47) of patients' tumors. […] (FIG. 7; AR: androgen receptor; LBD: ligand-binding domain; PSA: prostate-specific antigen; PSA30: best PSA declines ≥30%; PSA50: best PSA declines ≥50%; H875: H875Y; T878: T878A or T878S.)
Evaluable analysis set include all Compound A treated participants with baseline PSA assessment and at least a C1D28 or later postbaseline PSA assessment. A PSA90 and PSA50 and PSA30 response is defined as =90% or 50% or 30% decline in PSA from baseline PSA value.

[4] = safety in healthy volunteers (food/PPI study)
From the text: The primary endpoints were AUCinf and Cmax. Additional parameters measured included AUClast and Tmax.
The study consisted of 2 independent cohorts: an open-label, randomized, 2-period, crossover Fed/Fasted Cohort to determine food effects; and an open-label, 2-period, fixed sequence PPI Cohort to evaluate interactions with esomeprazole.

[5] = molecular target: T2, AR T878S (Homo sapiens, UniProt P10275, T878S); assay: AR degradation in T-Rex-293 cell line, T878S; format: cell-based; settings: T-Rex-293, ELISA
T2 construct: expressed in transfected cells; host or cells: T-REx-293
T2 sequence (P10275 whole entry T878S): as the sequence (P10275 whole entry T878A) above, with A878S counted along it
From the text: (§1) FIG. 3 is a graph showing Compound A's ability to degrade clinically relevant mutated forms AR.
(§2) To assess the ability of Compound A to degrade variants of the AR, vectors expressing wild-type AR or mutant AR proteins harboring clinically observed mutations in the ligand binding domain (13 with single amino acid changes or 4 with 2 amino acid changes) (Azad A. A., Volik S. V., Wyatt A. W., et al. Androgen receptor gene aberrations in circulating cell-free DNA: biomarkers of therapeutic resistance in castration-resistant prostate cancer. Clin Cancer Res. 2015; 21:2315-2324; Robinson D., Van Allen E. M., Wu Y. M., et al. Integrative clinical genomics of advanced prostate cancer. Cell. 2015; 161:1215-1228; Ledet E. M., Lilly M. B., Sonpavde G., et al. Comprehensive analysis of AR alterations in circulating tumor DNA from patients with advanced prostate cancer. Oncologist.

[6] = molecular target: T3, AR M750T (Homo sapiens, UniProt P10275, M750T); assay: AR degradation in T-Rex-293 cell line, M750T; format: cell-based; settings: T-Rex-293, ELISA
T3 construct: expressed in transfected cells; host or cells: T-REx-293
T3 sequence (P10275 whole entry M750T): as the sequence (P10275 whole entry T878A) above, with M750T, A878T counted along it
From the text: as §1, §2

[7] = molecular target: T4, AR M750V (Homo sapiens, UniProt P10275, M750V); assay: AR degradation in T-Rex-293 cell line, M750V; format: cell-based; settings: T-Rex-293, ELISA
T4 construct: expressed in transfected cells; host or cells: T-REx-293
T4 sequence (P10275 whole entry M750V): as the sequence (P10275 whole entry T878A) above, with M750V, A878T counted along it
From the text: as §1, §2

[8] = tested on: receptors, ion channels, transporters, and enzymes; assay: selectivity screening panel of 44 targets: other targets; format: binding; settings: 1 μM; interaction = effect greater than 50% of positive control
Procedure: Compound A was tested at 1 μM in a screening study to assess the interaction of Compound A with a panel of 44 targets, including receptors, ion channels, transporters, and enzymes. Any effect greater than 50% of the positive control for a target was considered to represent an interaction of the test compound with the target.

[9] = tested on: GSPT1, Aiolos, Ikaros, CK1α, and SALL4; assay: cereblon neomorphic substrate degradation in Ramos and SK-N-DZ cells; format: cell-based; settings: 1 μM
[10] = Fed/Fasted Cohort, 200 mg, 14 healthy participants
[11] = healthy volunteer study, both cohorts

COc1cc(O[C@H]2C(C)(C)[C@H](NC(=O)c3ccc(N4CCC(CN5CCN(c6ccc(C(=O)N[C@H]7CCC(=O)NC7=O)c(F)c6)CC5)CC4)cc3)C2(C)C)ccc1C#N [Compound A, 4-(4-((1-(4-(((1R,3R)-3-(4-cyano-3-methoxyphenoxy)-2,2,4,4-tetramethylcyclobutyl)carbamoyl)phenyl)piperidin-4-yl)methyl)piperazin-1-yl)-N—((S)-2,6-dioxopiperidin-3-yl)-2-fluorobenzamide]
IC50 [1]: 4 nM | DC50 [2]: ≤ 1.3 nM | Dmax [2]: ≥ 91% | PSA decline in patient with mCRPC with wild-type AR ([3]; FIG. 14): Deep PSA decline | patients with AR LBD mutations achieving PSA50 ([3]; Phase 1 and interim Phase 2): 42% | patients with AR LBD mutations achieving PSA50 ([3]; as the trial progressed, 7 of 17): 41% | severity of TEAEs ([4]; Fed/Fasted Cohort): All TEAEs were Grade 1 | headache (TEAE) [4, 10]: 4 (28.6%) participants | participants reporting TEAEs [4, 10]: 5 (35.7%) participants | participants with at least one TEAE considered related to Compound A [4, 10]: 3 (21.4%) participants | TRAE dizziness ([4]; Fed/Fasted Cohort, Grade 1): 1 participant | TRAE fatigue ([4]; Fed/Fasted Cohort, Grade 1): 1 participant | TRAE headache ([4]; Fed/Fasted Cohort, Grade 1): 2 participants | TEAEs of Grade 3 or higher ([4]; PPI Cohort): no TEAEs of Grade 3 or higher | participants reporting TEAEs ([4]; PPI Cohort, 300 mg, 16 healthy participants): 8 (50.0%) participants | participants with Grade 2 events ([4]; PPI Cohort, pain in the extremity and CRP increased): 2 (12.5%) participants | tolerability of a single oral dose ([4]; healthy male participants, fasting, fed, or with esomeprazole): generally well tolerated | deaths, SAEs, discontinuations due to AEs [4, 11]: no deaths, SAEs, or participant discontinuations due to AEs | laboratory results, vital signs, physical examinations, 12-lead ECGs, C-SSRS [4, 11]: no clinically significant findings | DC50 [5]: 0.9 nM | DC50 [6]: 0.6 nM | DC50 [7]: 1.4 nM | interaction with any other target of the panel of 44 targets [8]: No interaction with any other target was identified | degradation of GSPT1, Aiolos, Ikaros, CK1α, and SALL4 [9]: did not lead to degradation
